Experimental data published in the NIST ThermoML archive (doi:10.1016/j.jct.2007.05.011).

Test: xn = mol fraction of the nth substance listed
Conditions: 101 kPa, Liquid; for mass density: Vibrating tube method

NCCO.O=CO [2-hydroxyethylammonium formate] + CO
Conditions	mass density [kg/m3]	speed of sound [m/s]
305.65 K, x2 = 0	–	1690.8
305.65 K, x2 = 0.055	–	1708.1
305.65 K, x2 = 0.098	–	1696.5
305.65 K, x2 = 0.193	–	1665.8
305.65 K, x2 = 0.296	–	1628.2
305.65 K, x2 = 0.399	–	1584.1
305.65 K, x2 = 0.5	–	1532.8
305.65 K, x2 = 0.598	–	1474
305.65 K, x2 = 0.701	–	1403.2
305.65 K, x2 = 0.799	–	1318
305.65 K, x2 = 0.9	–	1213.2
305.65 K, x2 = 0.951	–	1148.9
308.15 K, x2 = 0	1169.39	1684.8
308.15 K, x2 = 0.055	1162.82	1702.9
308.15 K, x2 = 0.098	1156.3	1691.3
308.15 K, x2 = 0.193	1139.55	1660.5
308.15 K, x2 = 0.296	1118.84	1622.8
308.15 K, x2 = 0.399	1094.27	1578.5
308.15 K, x2 = 0.5	1065.38	1527.1
308.15 K, x2 = 0.598	1031.9	1468
308.15 K, x2 = 0.701	990.06	1396.8
308.15 K, x2 = 0.799	937.959	1311.2
308.15 K, x2 = 0.9	869.95	1206
308.15 K, x2 = 0.951	826.572	1141.2
310.65 K, x2 = 0	1167.62	1678.7
310.65 K, x2 = 0.055	1161.16	1697.8
310.65 K, x2 = 0.098	1154.64	1686.1
310.65 K, x2 = 0.193	1137.87	1655.3
310.65 K, x2 = 0.296	1117.13	1617.4
310.65 K, x2 = 0.399	1092.53	1573
310.65 K, x2 = 0.5	1063.59	1521.4
310.65 K, x2 = 0.598	1030.06	1462
310.65 K, x2 = 0.701	988.146	1390.5
310.65 K, x2 = 0.799	935.95	1304.5
310.65 K, x2 = 0.9	867.803	1198.7
310.65 K, x2 = 0.951	824.316	1133.6
313.15 K, x2 = 0	1165.84	1672.7
313.15 K, x2 = 0.055	1159.51	1692.7
313.15 K, x2 = 0.098	1152.98	1681
313.15 K, x2 = 0.193	1136.19	1650
313.15 K, x2 = 0.296	1115.42	1612
313.15 K, x2 = 0.399	1090.78	1567.5
313.15 K, x2 = 0.5	1061.81	1515.6
313.15 K, x2 = 0.598	1028.22	1456
313.15 K, x2 = 0.701	986.228	1384.2
313.15 K, x2 = 0.799	933.936	1297.8
313.15 K, x2 = 0.9	865.647	1191.4
313.15 K, x2 = 0.951	822.053	1125.9
315.65 K, x2 = 0	1164.06	1666.7
315.65 K, x2 = 0.055	1157.86	1687.6
315.65 K, x2 = 0.098	1151.33	1675.8
315.65 K, x2 = 0.193	1134.51	1644.8
315.65 K, x2 = 0.296	1113.71	1606.7
315.65 K, x2 = 0.399	1089.03	1561.9
315.65 K, x2 = 0.5	1060.02	1509.9
315.65 K, x2 = 0.598	1026.37	1450.1
315.65 K, x2 = 0.701	984.31	1377.9
315.65 K, x2 = 0.799	931.919	1291.2
315.65 K, x2 = 0.9	863.489	1184.2
315.65 K, x2 = 0.951	819.788	1118.4
318.15 K, x2 = 0	1162.29	1660.8
318.15 K, x2 = 0.055	1156.21	1682.5
318.15 K, x2 = 0.098	1149.67	1670.7
318.15 K, x2 = 0.193	1132.83	1639.5
318.15 K, x2 = 0.296	1112	1601.3
318.15 K, x2 = 0.399	1087.29	1556.4
318.15 K, x2 = 0.5	1058.22	1504.2
318.15 K, x2 = 0.598	1024.52	1444.2
318.15 K, x2 = 0.701	982.388	1371.7
318.15 K, x2 = 0.799	929.9	1284.6
318.15 K, x2 = 0.9	861.326	1177.1
318.15 K, x2 = 0.951	817.518	1110.9
320.65 K, x2 = 0	1160.51	1654.8
320.65 K, x2 = 0.055	1154.57	1677.4
320.65 K, x2 = 0.098	1148.03	1665.5
320.65 K, x2 = 0.193	1131.15	1634.3
320.65 K, x2 = 0.296	1110.29	1596
320.65 K, x2 = 0.399	1085.54	1550.9
320.65 K, x2 = 0.5	1056.43	1498.5
320.65 K, x2 = 0.598	1022.67	1438.3
320.65 K, x2 = 0.701	980.467	1365.5
320.65 K, x2 = 0.799	927.874	1278
320.65 K, x2 = 0.9	859.158	1170
320.65 K, x2 = 0.951	815.245	1103.5
323.15 K, x2 = 0	1158.73	1648.9
323.15 K, x2 = 0.055	1152.94	1672.4
323.15 K, x2 = 0.098	1146.39	1660.5
323.15 K, x2 = 0.193	1129.49	1629.2
323.15 K, x2 = 0.296	1108.59	1590.7
323.15 K, x2 = 0.399	1083.8	1545.5
323.15 K, x2 = 0.5	1054.64	1492.9
323.15 K, x2 = 0.598	1020.83	1432.5
323.15 K, x2 = 0.701	978.549	1359.5
323.15 K, x2 = 0.799	925.853	1271.4
323.15 K, x2 = 0.9	856.995	1163
323.15 K, x2 = 0.951	812.98	1096.1
